Experiments:
[1] = tested on: influenza A virus A/Aichi/2/68 (H3N2); test: Cytopathic effect (CPE) assay H3N2 in MDCK cells; format: cell-based, influenza A virus (A/Aichi/2/68 (H3N2)); MDCK cells
Method: A possible measure of the […] antiviral activity of the compounds having the formula I or II is the CPE assay disclosed herein. […] In this connection, the reduction in the virus-mediated cytopathic effect (CPE) upon treatment with the compounds was calculated as follows: The cell viability of infected-treated and uninfected-treated cells was determined using an ATP-based cell viability assay (Promega). The response in relative luminescent units (RLU) of infected-untreated samples was subtracted from the response (RLU) of the infected-treated samples and then normalized to the viability of the corresponding uninfected sample resulting in % CPE reduction.
The influenza A virus (IAV) was obtained from American Tissue Culture Collection (A/Aichi/2/68 (H3N2); VR-547). Virus stocks were prepared by propagation of virus on Mardin-Darby canine kidney (MDCK; ATCC CCL-34) cells and infectious titres of virus stocks were determined by the 50% tissue culture infective dose (TCID50) analysis as described in Reed, L. J., and H. Muench. 1938, Am. J. Hyg. 27:493-497.
MDCK cells were seeded in 96-well plates at 2×10^4 cells/well using DMEM/Ham's F-12 (1:1) medium containing 10% foetal bovine serum (FBS), 2 mM L-glutamine and 1% antibiotics (all from PAA). Until infection the cells were incubated for 5 hrs at 37° C., 5.0% CO2 to form a -80% confluent monolayer on the bottom of the well. Each test compound was dissolved in DMSO and generally tested at 25 μM and 250 μM. In those cases where the compounds were not soluble at that concentration they were tested at the highest soluble concentration. The compounds were diluted in infection medium (DMEM/Ham's F-12 (1:1) containing 5 μg/ml trypsin, and 1% antibiotics) for a final plate well DMSO concentration of 1%. The virus stock was diluted in infection medium (DMEM/Ham's F-12 (1:1) containing 5 μg/m1Trypsin, 1% DMSO, and 1% antibiotics) to a theoretical multiplicity of infection (M01) of 0.05.
After removal of the culture medium and one washing step with PBS, virus and compound were added together to the cells. In the wells used for cytotoxicity determination (i.e. in the absence of viral infection), no virus suspension was added. Instead, infection medium was added. Each treatment was conducted in two replicates. After incubation at 37° C., 5% CO2 for 48 hrs, each well was observed microscopically for apparent cytotoxicity, precipitate formation, or other notable abnormalities. Then, cell viability was determined using
CellTiter-Glo luminescent cell viability assay (Promega). The supernatant was removed carefully and 65 μl of the reconstituted reagent were added to each well and incubated with gentle shaking for 15 min at room temperature. Then, 60 μl of the solution was transferred to an opaque plate and luminescence (RLU) was measured using Synergy HT plate reader (Biotek).
Relative cell viability values of uninfected-treated versus uninfected-untreated cells were used to evaluate cytotoxicity of the compounds. Substances with a relative viability below 80% at the tested concentration were regarded as cytotoxic and retested at lower concentrations.
Reduction in the virus-mediated cytopathic effect (CPE) upon treatment with the compounds was calculated as follows: The response (RLU) of infected-untreated samples was subtracted from the response (RLU) of the infected-treated samples and then normalized to the viability of the corresponding uninfected sample resulting in % CPE reduction.

[2] = molecular target: PB2 cap binding domain (CBD) of an avian H5N1 influenza virus (Influenza A virus, UniProt Q9Q0V1); test: biochemical
PB2 cap binding domain (CBD) of an avian H5N1 influenza virus, sequence (Q9Q0V1 318-483 limits assumed): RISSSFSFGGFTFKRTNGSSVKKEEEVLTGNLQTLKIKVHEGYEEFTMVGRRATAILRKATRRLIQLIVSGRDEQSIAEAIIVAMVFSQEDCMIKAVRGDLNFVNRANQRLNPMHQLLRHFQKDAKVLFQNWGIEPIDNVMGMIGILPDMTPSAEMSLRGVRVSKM

O=C(NO)c1cc(NS(=O)(=O)Cc2ccccc2)ccn1
melting point: 187 to 192 °C

Cc1c(-c2cnn(C)c2)sc2nc(N)[nH]c(=O)c12
melting point: 335 to 345 °C

N/C(=N\O)c1ccc(C(=O)NO)nc1
CPE H3N2 reduction (%) ([1]; activity conc 50 (μM)): −4.8%

CON(C)C(=O)c1ccc2ccccc2n1
CPE H3N2 reduction (%) ([1]; activity conc 50 (μM)): −1.2%

O=C(NOC(=O)c1cc(N2CCCCC2)ccn1)c1cc(N2CCCCC2)ccn1
CPE H3N2 reduction (%) ([1]; activity conc 50 (μM)): 29%

CCONC(=O)c1cc(NCC2CCN(Cc3ccccc3)CC2)ccn1.Cl.Cl
CPE H3N2 reduction (%) ([1]; activity conc 50 (μM)): 14.8%

Cc1cccc(C(=O)NOCc2ccccc2)n1
CPE H3N2 reduction (%) ([1]; activity conc 50 (μM)): −2.7%

CCONC(=O)c1cccc(C)n1
CPE H3N2 reduction (%) ([1]; activity conc 50 (μM)): −2.1%

COc1ccc2nc(C(=O)NOCc3ccccc3)ccc2c1
CPE H3N2 reduction (%) ([1]; activity conc 50 (μM)): −1.9%

Cc1cccc(C(=O)N(C)OCc2ccccc2)n1
CPE H3N2 reduction (%) ([1]; activity conc 50 (μM)): −2.3%

CCON(C)C(=O)c1cccc(C)n1
CPE H3N2 reduction (%) ([1]; activity conc 50 (μM)): −1.9%

CN(OCc1ccccc1)C(=O)c1ccc(-c2ccccc2)cn1
CPE H3N2 reduction (%) ([1]; activity conc 50 (μM)): −2.6%

O=C(c1cc2ccccc2cn1)N(O)Cc1ccccc1
CPE H3N2 reduction (%) ([1]; activity conc 50 (μM)): 34.2%

O=C(NO)c1cc2ccccc2cn1
CPE H3N2 reduction (%) ([1]; activity conc 50 (μM)): 94.3%

O=C(NO)c1ccc(N2CCCC2)cn1
CPE H3N2 reduction (%) ([1]; activity conc 50 (μM)): −4.3%

Nc1ccccc1NC(=O)c1ccc(C(=O)NO)nc1
CPE H3N2 reduction (%) ([1]; activity conc 50 (μM)): −5.53%

O=C(c1cc(C2=CC3CCC(C2)N3)ccn1)N(O)Cc1ccccc1 (stereo not shown)
CPE H3N2 reduction (%) ([1]; activity conc 50 (μM)): 5.49%

Cl.O=C(NO)c1cc(NS(=O)(=O)Cc2ccc(Cl)c(Cl)c2)ccn1
CPE H3N2 reduction (%) ([1]; activity conc 50 (μM)): 53.43%

Cl.O=C(NO)c1cc(NS(=O)(=O)Cc2cccc3cccnc23)ccn1
CPE H3N2 reduction (%) ([1]; activity conc 50 (μM)): 24.39%

CCONC(=O)c1ccc(-c2cccc(CN(C)CCCc3ccccc3)c2)cn1.Cl (hydrate or solvate)
melting point: 50 to 55 °C

Cc1c(-c2ccccc2)sc2nc(N)[nH]c(=O)c12 [SAV-7475]
CPE H3N2 reduction (%) ([1]; activity conc 5): 8.9%

Nc1nc2sc(Cc3ccccc3)cc2c(=O)[nH]1 [SAV-7517]
CPE H3N2 reduction (%) ([1]; activity conc 10): 39.3 13 −2.64%

Cc1c(Cc2ccccc2)sc2nc(N)[nH]c(=O)c12 [SAV-7521]
CPE H3N2 reduction (%) ([1]; activity conc 25): 64.7 6 33.6%

Nc1nc2sc(-c3ccccc3)cc2c(=O)[nH]1 [SAV-7549]
CPE H3N2 reduction (%) ([1]; activity conc 50 (μM)): 65.5 −2.4 8.8%

COc1ccc(-c2sc3nc(N)[nH]c(=O)c3c2C)cc1 [SAV-7575]
CPE H3N2 reduction (%) ([1]; activity conc 20): 35.9 9.02 4%

Cc1c(-c2ccc(Cl)cc2)sc2nc(N)[nH]c(=O)c12 [SAV-7579]
CPE H3N2 reduction (%) ([1]; activity conc 20): 21.4 11.3 0.27%

Cc1c(-c2cccc(Cl)c2)sc2nc(N)[nH]c(=O)c12 [SAV-7580]
Biacore Binding (RU) [2]: 21.2 89.8 11 8.9 RU

Cc1c(-c2cccc(C(F)(F)F)c2)sc2nc(N)[nH]c(=O)c12 [SAV-7581]
CPE H3N2 reduction (%) ([1]; activity conc 50 (μM)): 87.8%

Cc1c(-c2ccccc2)sc2nc(NCCCO)[nH]c(=O)c12 [SAV-7582]
CPE H3N2 reduction (%) ([1]; activity conc 50 (μM)): 102.9 4.2 53.1%

Cc1c(-c2ccccc2)sc2nc(NCCN(C)C)[nH]c(=O)c12 [SAV-7583]
Biacore Binding (RU) [2]: 77.8 4.8 66 RU
Kd [2]: 66 µM

Cc1ccc(-c2sc3nc(N)[nH]c(=O)c3c2C)cc1 [SAV-7585]
CPE H3N2 reduction (%) ([1]; activity conc 2.5): 28.9%

Cc1c(-c2ccncc2)sc2nc(N)[nH]c(=O)c12 [SAV-7586]
CPE H3N2 reduction (%) ([1]; activity conc 15): 81.2%

Cc1c(-c2cccnc2)sc2nc(N)[nH]c(=O)c12 [SAV-7589]
CPE H3N2 reduction (%) ([1]; activity conc 50 (μM)): 63.1%

Cc1c(-c2cccc(C#N)c2)sc2nc(N)[nH]c(=O)c12 [SAV-7594]
CPE H3N2 reduction (%) ([1]; activity conc 5): 14.5%

Cc1c(-c2ccccc2Cl)sc2nc(N)[nH]c(=O)c12 [SAV-7596]
Biacore Binding (RU) [2]: 11 29.6 13.6 RU
Kd [2]: 11 µM

Cc1c(-c2ccccc2F)sc2nc(N)[nH]c(=O)c12 [SAV-7598]
CPE H3N2 reduction (%) ([1]; activity conc 2): 21.3 3.7 11.4%

Cc1c(-c2ccc(F)cc2)sc2nc(N)[nH]c(=O)c12 [SAV-7601]
CPE H3N2 reduction (%) ([1]; activity conc 50 (μM)): 69.2 1.1 44.3%

Cc1c(-c2ccc(Cl)c(C#N)c2)sc2nc(N)[nH]c(=O)c12 [SAV-7602]
CPE H3N2 reduction (%) ([1]; activity conc 20): 67.9 1.7 35.1%

Cc1c(-c2cnn(C)c2)sc2nc(N)[nH]c(=O)c12 [SAV-7603]
Kd [2]: 4.2 µM

CC(c1ccccc1)c1cc2c(=O)[nH]c(N)nc2s1 (stereo not shown) [SAV-7604]
CPE H3N2 reduction (%) ([1]; activity conc 20): −4.7 6.4%

Cc1c(-c2cccc(F)c2)sc2nc(N)[nH]c(=O)c12 [SAV-7606]
Kd [2]: 6 µM

Cc1c(-c2ccc(F)cc2F)sc2nc(N)[nH]c(=O)c12 [SAV-7610]
CPE H3N2 reduction (%) ([1]; activity conc 2): −1.6%

Cc1c(C2=CCNCC2)sc2nc(N)[nH]c(=O)c12 [SAV-7614]
CPE H3N2 reduction (%) ([1]; activity conc 50 (μM)): 190 10.6%

Cc1c(-c2cc(C#N)ccc2F)sc2nc(N)[nH]c(=O)c12 [SAV-7615]
CPE H3N2 reduction (%) ([1]; activity conc 20): 59.2%

Cc1c(-c2cccc(Cl)c2F)sc2nc(N)[nH]c(=O)c12 [SAV-7616]
CPE H3N2 reduction (%) ([1]; activity conc 10): 68.7%

Cc1c(-c2cc(C#N)ccc2Cl)sc2nc(N)[nH]c(=O)c12 [SAV-7617]
CPE H3N2 reduction (%) ([1]; activity conc 2): 2 5.1%

Cc1c(-c2ccc(Cl)cc2F)sc2nc(N)[nH]c(=O)c12 [SAV-7618]
CPE H3N2 reduction (%) ([1]; activity conc 50 (μM)): 77.4%

Cc1cc(-c2sc3nc(N)[nH]c(=O)c3c2C)ccc1Cl [SAV-7620]
CPE H3N2 reduction (%) ([1]; activity conc 50 (μM)): 57.8%

Cc1c(-c2ccc(F)nc2F)sc2nc(N)[nH]c(=O)c12 [SAV-7621]
IC50 ([1]; Influenza A virus, H3N2, MDCK, read-out: CPE H3N2 IC50 [μM]): 70 µM
CPE H3N2 reduction (%) ([1]; activity conc 25): 14.3%

Cc1c(-c2ccc(Cl)c(C(F)(F)F)c2)sc2nc(N)[nH]c(=O)c12 [SAV-7623]
CPE H3N2 reduction (%) ([1]; activity conc 5): 1.9%

Cc1c(-c2ccc(Cl)c(C(=O)N(C)C)c2)sc2nc(N)[nH]c(=O)c12 [SAV-7626]
CPE H3N2 reduction (%) ([1]; activity conc 25): 6.4 −4.6%

Cc1c(-c2cccc(C#N)c2F)sc2nc(N)[nH]c(=O)c12 [SAV-7627]
CPE H3N2 reduction (%) ([1]; activity conc 50 (μM)): 71.2%

Cc1c(-c2ccc(F)c(C#N)c2F)sc2nc(N)[nH]c(=O)c12 [SAV-7628]
CPE H3N2 reduction (%) ([1]; activity conc 50 (μM)): 84.3%

Cc1c(-c2cccc(CN(C)C)c2)sc2nc(N)[nH]c(=O)c12 [SAV-7629]
CPE H3N2 reduction (%) ([1]; activity conc 50 (μM)): 38.3%

Nc1nc2sc(-c3ccccc3)c(Br)c2c(=O)[nH]1 [SAV-7631]
Kd [2]: 0.86 µM

Cc1c(-c2ccc(Cl)nc2)sc2nc(N)[nH]c(=O)c12 [SAV-7632]
CPE H3N2 reduction (%) ([1]; activity conc 50 (μM)): 0.75 53%

Cc1c(-c2ccnc(Cl)c2F)sc2nc(N)[nH]c(=O)c12 [SAV-7633]
CPE H3N2 reduction (%) ([1]; activity conc 50 (μM)): 63.1%

Cc1c(-c2c(F)ccc(Cl)c2F)sc2nc(N)[nH]c(=O)c12 [SAV-7637]
CPE H3N2 reduction (%) ([1]; activity conc 5): 1.5%

Cc1c(-c2ccccc2)sc2nc(Nc3ccccc3)[nH]c(=O)c12 [SAV-7638]
CPE H3N2 reduction (%) ([1]; activity conc 5): 8.7%

Cc1c(-c2ccccc2)sc2nc(NC3CCCCC3)[nH]c(=O)c12 [SAV-7640]
CPE H3N2 reduction (%) ([1]; activity conc 5): −3.2%

O=C(NO)c1cc(NS(=O)(=O)Cc2ccccc2)ccn1 [drawing 243]
CPE H3N2 reduction (%) ([1]; activity conc 50 (μM)): 5.1%
